# Measured values from US7498023B2, “Blockade of T cell migration into epithelial GVHD target tissues as an approach to achieving anti-tumor effects against lymphohematopoietic malignancies without GVHD” (The General Hospital Corporation, priority 2000, dated 2009).
# How the values were obtained:
# [1] = cited from earlier work
# [2] = Cy 50 mg/kg daily x4 with ATG, thymic irradiation, BMT; five subjects
# Description: Intravenous cyclosporine (CYA) was given beginning on day −1 with conversion to p.o. CYA when tolerated. Donor leukocytes (DLI) were given on days +35, (10^7/kg CD3+ cells) and +56 (5×10^7/kg CD3+ cells) if no GVHD was present. Median subject age was 30 (range 20-45) years. All subjects had disease progression during salvage chemotherapy or radiation therapy. […] Chimerism analyses of weekly peripheral blood samples and pre-BMT, day +28, and day +100 bone marrow aspirate samples have been performed by variable number of tandem repeat sequence (VNTR) analysis (HLA matched BMT) or flow cytometry (HLA mismatched BMT).
compound,measurement,setting,value
O=P1(N(CCCl)CCCl)NCCCO1 (centres unmarked) [cyclophosphamide],subjects developing a diffuse maculopapular rash,[1]; 24-72 hours following cyclophosphamide,10-20%
same,subjects with some hematuria,[1]; at this dose level (50 mg/kg x4),Approximately 50%
same,incidence of hemorrhagic cystitis,"[1]; cyclophosphamide 50 mg/kg on days -6, -5, -4, -3",20%
same,total dose at which fatal cardiac failure due to hemorrhagic necrosis occurs,[1]; total dose (7.6 grams/m^2),≥ 200 mg/kg
same,toxicities observed,[2],reversible Cy cardiotoxicity (n=1)
